Our source for the MIC values is ChEMBL document CHEMBL3046075, “Synthesis and antibacterial activity of novel 7-haloanilino-8-nitrofluoroquinolone derivatives” (2012).

Structures are written as SMILES. Converted amounts (≈) assume the structure as drawn.

The subject of experiment [1] is Staphylococcus aureus. Kind of experiment: Antibacterial activity against resistant isolates of Staphylococcus aureus after 24 hr by two-fold serial dilution method. In kind it is functional.
The subject of experiment [2] is Staphylococcus aureus. Briefly: Antibacterial activity against Staphylococcus aureus ATCC 6538 after 24 hr by two-fold serial dilution method. As to conditions: ATCC 6538, 24 h. In kind it is functional.

In general, MIC refers to the smallest concentration in the dilution series that meets the test's criterion for growth inhibition. A higher MIC goes with weaker potency. Take `O=C(O)c1cn(C2CC2)c2c([N+](=O)[O-])c(Nc3ccccc3F)c(F)cc2c1=O`: the MIC with Staphylococcus aureus [1] and with Staphylococcus aureus [2] was 106 µg/mL (≈ 264 µM) each time. Take `O=C(O)c1cn(C2CC2)c2c([N+](=O)[O-])c(Nc3ccccc3)c(F)cc2c1=O`: in the experiment with Staphylococcus aureus [2], the lowest concentration to inhibit growth (MIC) was 11.7 µg/mL (≈ 30.5 µM). For the compound `O=C(O)c1cn(C2CC2)c2c([N+](=O)[O-])c(Nc3ccccc3Cl)c(F)cc2c1=O`, the MIC with Staphylococcus aureus [1] and against Staphylococcus aureus [2] was 6.7 µg/mL (≈ 16 µM) throughout. Turning to `O=C(O)c1cn(C2CC2)c2c([N+](=O)[O-])c(Nc3cccc(Cl)c3)c(F)cc2c1=O`, the MIC in the experiment with Staphylococcus aureus [1] was 7 µg/mL (≈ 16.8 µM); against Staphylococcus aureus [2] it was 0.9 µg/mL (≈ 2.15 µM). Consider `O=C(O)c1cn(C2CC2)c2c([N+](=O)[O-])c(Nc3ccc(Cl)cc3)c(F)cc2c1=O`, for which the minimum inhibitory concentration (MIC) against Staphylococcus aureus [1] is 9.8 µg/mL (≈ 23.5 µM); against Staphylococcus aureus [2], 6.7 µg/mL (≈ 16 µM). On to `O=C(O)c1cn(C2CC2)c2c([N+](=O)[O-])c(Nc3ccc(F)c(F)c3F)c(F)cc2c1=O`, for which the figures for the MIC against Staphylococcus aureus [1] and against Staphylococcus aureus [2] were 9.8 µg/mL (≈ 22.4 µM) and 39 µg/mL (≈ 89.2 µM), respectively. The like results for `O=C(O)c1cn(C2CC2)c2cc(N3CCNCC3)c(F)cc2c1=O` [CIPROFLOXACIN] were, in that order, 1.4 µg/mL (≈ 4.23 µM) and 2.9 µg/mL (≈ 8.75 µM).
